ChEMBL document CHEMBL3817795, “Identification and optimisation of a series of N-(4-anilino-2-pyridyl)acetamide activin receptor-like kinase 1 (ALK1) inhibitors” (Medchemcomm, 2016)

Assay: Lipophilicity, log D of the compound at pH 7.4
Assay type: physicochemical
Conditions: buffer

A logD of 3.7 was found for `O=C(Nc1cc(Nc2cccc3c2OCO3)ccn1)C1CC1` in this work.
